Measurements as given in patent publication US20250082764A1, “DRUG FOR TREATING TRIPLE NEGATIVE BREAST CANCER” (HINOVA PHARMACEUTICALS INC., priority 2022, published 2025).

What was measured:
Format in all cases: cell-based
MDA-MB-453 cells [1] = assay: Inhibition of proliferation of MDA-MB-453 cells by single agents (CCK-8 or CTG); details: co-incubation for 7-10 days; for inhibitory effect on the proliferation of MDA-MB-453 cells (in words): single agent
Protocol: Triple negative breast cancer MDA-MB-453 cells in logarithmic growth stage were inoculated into a 96-well plate at a concentration of 4×10^3 cells/well, and then incubated in an incubator at 37° C., 5% CO2, and saturated humidity for 24 h or 48 h. To the negative control well, was added RPMI 1640 cell medium containing 10% fetal bovine serum in the same volume as the drug. After cultured for 24 h or 48 h, to the 96-well plate, were added AR PROTACs compounds 162, 177, 230, 259, 279, 281, 282, 325, 357, 400, ARV-110, ARV-766 and AR inhibitor HC-1119, respectively. The concentrations of compounds 177, 230, 259, 279, 281, 282, 325, 357, 400, ARV-110, and ARV-766 are 0 μM, 0.002 μM, 0.005 μM, 0.014 μM, 0.041 μM, 0.123 μM, 0.370 μM, 1.111μM, 3.333 μM or 10 μM; while the concentrations of HC-1119 are 0 μM, 1.23 μM, 3.70 μM, 11.11 μM, 33.33 μM or 100 μM.
(§1) After addition of the drugs and co-incubation for 7-10 days, 10 μL of CCK-8 was added to each well, and then the plate was further cultured for 2 h. The absorbance value (OD) of each well was measured using a microplate reader at a wavelength of 450 nm. The survival rate was calculated using Prism software, the relative survival rate=(OD value of drug well/OD value of control well)×100%. Alternatively, 100 μL of medium was removed from each well, and then 50 μL of CTG was added. The plate was shaken in the dark for 2 min, allowed to stand for 10 min, and then measured using a microplate reader in Luminescence mode. Prism software was used to calculate the survival rate, the relative survival rate=(the RLU value of drug well/the RLU value of control well)×100%.

MDA-MB-453 cells [2] = assay: Proliferation of MDA-MB-453 cells, AR PROTAC in combination with PI3K inhibitor Alpelisib (Combination Index); details: molar ratio of compound to Alpelisib 1:27-9:1; 7 days; synergistic when CI<1
Protocol: (§2) Triple negative breast cancer MDA-MB-453 cells in logarithmic growth stage were inoculated into a 96-well plate at a concentration of 4×10^3 cells/well, and then incubated in an incubator at 37° C., 5% CO2, and saturated humidity for 24 h. To the negative control wells, were added RPMI 1640 cell culture medium containing 10% fetal bovine serum in the same volume as the drug. After cultured for 24 h, to the 96-well plate, were sequentially added AR PROTACs compounds 279, 281, 282, ARV-110, ARV-766 and PI3K inhibitor Alpelisib, respectively.
as §1, with “7” for “7-10”

MDA-MB-453 cells [3] = assay: Proliferation of MDA-MB-453 cells, AR PROTAC in combination with PI3K inhibitor Duvelisib (Combination Index); details: molar ratio of compound to Duvelisib 1:30-1:1.111; 7-10 days; synergistic when CI<1
Protocol: as §2, with “ARV-110” for “ARV-110, ARV-766”, “Duvelisib,” for “Alpelisib,”
as §1, with “adding” for “addition of”, “co-incubating” for “co-incubation”

MDA-MB-453 cells [4] = assay: Proliferation of MDA-MB-453 cells, AR PROTAC in combination with PI3K inhibitor Idelalisib (Combination Index); details: molar ratio of compound to Idelalisib 1:270-1:3.333; 7-10 days; synergistic when CI<1
Protocol: as §2, with “Idelalisib,” for “Alpelisib,”
as §1, with “adding” for “addition of”, “co-incubating” for “co-incubation”

MDA-MB-453 cells [5] = assay: Proliferation of MDA-MB-453 cells, AR PROTAC in combination with chemotherapeutic drug Paclitaxel (Combination Index); details: molar ratio of compound to Paclitaxel 20:1-5000:1; 7 days; synergistic when CI<1
Protocol: as §2, with “ARV-110” for “ARV-110, ARV-766”, “chemotherapeutic drug Paclitaxel,” for “PI3K inhibitor Alpelisib,”
as §1, with “adding” for “addition of”, “co-incubating” for “co-incubation”, “7” for “7-10”

| Structure (SMILES) | inhibitory effect on the proliferation of MDA-MB-453 cells (in words) (MDA-MB-453 cells [1]) | effect of drug combination with Alpelisib on inhibiting the proliferation of MDA-MB-453 cells (MDA-MB-453 cells [2]) | effect of drug combination with Duvelisib on inhibiting the proliferation of MDA-MB-453 cells (MDA-MB-453 cells [3]) | effect of drug combination with Idelalisib on inhibiting the proliferation of MDA-MB-453 cells (MDA-MB-453 cells [4]) | effect of drug combination with Paclitaxel on inhibiting the proliferation of MDA-MB-453 cells (MDA-MB-453 cells [5]) | IC50 (MDA-MB-453 cells [1]; Homo sapiens, MDA-MB-453, CCK-8 or CTG readout, read-out: IC50 values against MDA-MB-453 cells) [nM] |
| --- | --- | --- | --- | --- | --- | --- |
| N#Cc1ccc(O[C@H]2CC[C@H](NC(=O)c3ccc(N4CCC(CN5CCN(c6cc7c(cc6F)C(=O)N(C6CCC(=O)NC6=O)C7=O)CC5)CC4)nn3)CC2)cc1Cl (stereo partly shown) [ARV-110, reference compound] | inhibit the proliferation of MDA-MB-453 cells to varying degrees | synergistic effect | synergistic effect | synergistic effect | synergistic effect |  |
| COc1cc(O[C@H]2C(C)(C)[C@H](NC(=O)c3ccc(N4CCC(CN5CCN(c6ccc(C(=O)N[C@H]7CCC(=O)NC7=O)c(F)c6)CC5)CC4)cc3)C2(C)C)ccc1C#N [ARV-766, reference compound] | inhibit the proliferation of MDA-MB-453 cells to varying degrees | synergistic effect |  | synergistic effect |  |  |
| N#Cc1ccc(O[C@H]2CC[C@H](NC(=O)c3cnc(N4C[C@@H]5[C@@H](CN6CCN(c7ccc8c(c7)C(=O)N(C7CCC(=O)NC7=O)C8=O)CC6)[C@@H]5C4)cn3)CC2)cc1Cl (stereo partly shown) [Compound 177] | inhibit the proliferation of MDA-MB-453 cells to varying degrees |  |  |  |  |  |
| N#Cc1ccc(O[C@H]2CC[C@H](NC(=O)c3ccc(N4CCC(CN5CCC6(CC5)CN(c5ccc7c(c5)C(=O)N(C5CCC(=O)NC5=O)C7=O)C6)CC4)nn3)CC2)cc1Cl (stereo partly shown) [Compound 230] | inhibit the proliferation of MDA-MB-453 cells to varying degrees |  |  |  |  |  |
| N#Cc1ccc(O[C@H]2CC[C@H](NC(=O)c3ccc(N4CC5CN(CC6CCN(c7cc8c(cc7F)C(=O)N(C7CCC(=O)NC7=O)C8=O)CC6)CC5C4)nn3)CC2)cc1Cl (stereo partly shown) [Compound 259] | inhibit the proliferation of MDA-MB-453 cells to varying degrees |  |  |  |  |  |
| N#Cc1ccc(O[C@H]2CC[C@H](NC(=O)c3cnc(N4CCC(CN5CCC6(CC5)CN(c5ccc7c(c5)C(=O)N(C5CCC(=O)NC5=O)C7=O)C6)CC4)nn3)CC2)cc1Cl (stereo partly shown) [Compound 279] | inhibit the proliferation of MDA-MB-453 cells to varying degrees | synergistic effect | synergistic effect | synergistic effect | synergistic effect |  |
| N#Cc1ccc(O[C@H]2CC[C@H](NC(=O)c3ccc(N4CCC(N5CCC6(CC5)CN(c5ccc7c(c5)C(=O)N(C5CCC(=O)NC5=O)C7=O)C6)CC4)nn3)CC2)cc1Cl (stereo partly shown) [Compound 281] | inhibit the proliferation of MDA-MB-453 cells to varying degrees | synergistic effect | synergistic effect | synergistic effect | synergistic effect |  |
| N#Cc1ccc(O[C@H]2CC[C@H](NC(=O)c3ccc(N4CC5(CCN(CC6CCN(c7ccc8c(c7)C(=O)N(C7CCC(=O)NC7=O)C8=O)CC6)CC5)C4)nn3)CC2)cc1Cl (stereo partly shown) [Compound 282] | inhibit the proliferation of MDA-MB-453 cells to varying degrees | synergistic effect | synergistic effect | synergistic effect | synergistic effect |  |
| CC1(C)[C@H](Oc2ccc(C#N)c(Cl)c2)C(C)(C)[C@H]1N1Cc2nc(C#C[C@H]3CC[C@H](N4CCN(c5ccc6c(c5)C(=O)N(C5CCC(=O)NC5=O)C6=O)CC4)CC3)ccc2C1=O (stereo partly shown) [Compound 325] | inhibit the proliferation of MDA-MB-453 cells to varying degrees |  |  |  |  |  |
| CC1(C)[C@H](Oc2ccc(C#N)c(Cl)c2)C(C)(C)[C@H]1N1Cc2nc(C#C[C@H]3C[C@H](N4CCN(c5cc6c(cc5F)C(=O)N(C5CCC(=O)NC5=O)C6=O)CC4)C3)ccc2C1=O (stereo partly shown) [Compound 357] | inhibit the proliferation of MDA-MB-453 cells to varying degrees |  |  |  |  | ≤ 2000 |
| COc1cc(O[C@H]2C(C)(C)[C@H](N3Cc4nc(C#C[C@H]5CC[C@H](N6CCN(c7ccc8c(c7)C(=O)N(C7CCC(=O)NC7=O)C8=O)CC6)CC5)ccc4C3=O)C2(C)C)ccc1C#N (stereo partly shown) [Compound 400] | inhibit the proliferation of MDA-MB-453 cells to varying degrees |  |  |  |  |  |
| [2H]C([2H])([2H])NC(=O)c1ccc(N2C(=S)N(c3ccc(C#N)c(C(F)(F)F)c3)C(=O)C2(C)C)cc1F [HC-1119, reference compound] | weak inhibitory effect |  |  |  |  |  |
